# Assay results from patent publication US11384066B1, “Heterocyclic compounds useful as aurora a selective inhibitors” (Jacobio Pharmaceuticals Co., Ltd., priority 2020, dated 2022).
# Tests used:
# [1] = biological target: Aurora A (Homo sapiens (Human), UniProt O14965); assay: Aurora A kinase assay (mobility shift assay); format: biochemical
# Method: (§1) Example A: Evaluation of Aurora a and Aurora B Inhibitory Effect—Kinase Assay
# (§2) The inhibitory activities of a test compound against Aurora A and Aurora B were measured according to the following method.
# (§3) The IC50 value of Aurora A and Aurora B kinase was performed by Sundia MediTech Co. Ltd. using Mobility shift assay.
# (§4) • (1) Prepare a 1× kinase buffer [50 mM 4-(2-hydroxyethyl)-1-piperazineethanesulfonic acid (HEPES), PH 7.5, 0.01% Brij-35, 10 mM MgCl2, 2 mM dithiothreitol (DTT)]. • (2) Prepare compound:
# (§5) The testing compound was dissolved with DMSO. The testing compound was diluted up to 100× final concentration in a 384-well plate. Transfer 250 nL of the compound dilution to a 384-well assay plate using Echo 550. 100% DMSO of 250 nL was added to the negative control well and the positive control well. • (3) Prepare a 2.5× enzyme solution using the above 1× kinase buffer. • (4) Add 10 μL of the 2.5× enzyme solution to the compound well and the positive control well of the 384-well assay plate. Add 10 μL of the 1× kinase buffer to the negative control well. • (5) The 384-well plate was centrifuged at 1000 rpm for 30 seconds and incubated at room temperature for 10 min. • (6) A mixture of ATP and Kinase substrate 21 with a final concentration of 25/15× was prepared by the 1× kinase buffer. • (7) Add 15 μL of the mixture of 25/15×ATP and kinase substrate solution 21 to start reaction. • (8) The 384-well plate was centrifuged at 1000 rpm for 30 seconds and incubated at room temperature. • (9) 30 μL of the stop and detection buffer was added to stop the kinase reaction and centrifuged at 1000 rpm for 30 seconds. • (10) Collect data on Caliper EZ ReaderII. Data Analysis:
# (§6) Conversion %_sample is conversion rate data of samples. Conversion %_min is mean value of negative control (conversion rate data without enzyme activation). Conversion %_max is mean positive control (conversion rate data without compound).
# (§7) The log of concentration is on the X axis, and the percentage inhibition is on the Y axis. Fit the Quantitative effect curves with log (inhibitor) vs. response—Variable slope in GraphPad Prism5 obtain IC50 values. Equation used is Y=Bottom+(Top−Bottom)/(1+10^((Log IC50−X)*HillSlope)).
# [2] = biological target: Aurora B (Homo sapiens (Human), UniProt Q96GD4); assay: Aurora B kinase assay (mobility shift assay); format: biochemical; details: ratio of Aurora B IC50 to Aurora A IC50
# Chain of Aurora B (Q96GD4 whole entry): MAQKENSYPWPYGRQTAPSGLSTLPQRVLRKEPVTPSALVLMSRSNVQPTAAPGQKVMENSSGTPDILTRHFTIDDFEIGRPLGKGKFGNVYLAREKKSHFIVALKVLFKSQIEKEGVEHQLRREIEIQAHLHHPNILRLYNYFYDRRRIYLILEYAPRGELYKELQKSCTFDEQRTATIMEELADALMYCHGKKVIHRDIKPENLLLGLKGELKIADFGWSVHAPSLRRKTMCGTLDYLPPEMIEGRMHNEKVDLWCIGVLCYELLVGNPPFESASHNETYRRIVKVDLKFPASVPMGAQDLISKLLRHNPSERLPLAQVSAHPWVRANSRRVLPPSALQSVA
# Method: as §1, §2, §3, §4, §5, §6, §7
# Chain of Aurora A (O14965 whole entry): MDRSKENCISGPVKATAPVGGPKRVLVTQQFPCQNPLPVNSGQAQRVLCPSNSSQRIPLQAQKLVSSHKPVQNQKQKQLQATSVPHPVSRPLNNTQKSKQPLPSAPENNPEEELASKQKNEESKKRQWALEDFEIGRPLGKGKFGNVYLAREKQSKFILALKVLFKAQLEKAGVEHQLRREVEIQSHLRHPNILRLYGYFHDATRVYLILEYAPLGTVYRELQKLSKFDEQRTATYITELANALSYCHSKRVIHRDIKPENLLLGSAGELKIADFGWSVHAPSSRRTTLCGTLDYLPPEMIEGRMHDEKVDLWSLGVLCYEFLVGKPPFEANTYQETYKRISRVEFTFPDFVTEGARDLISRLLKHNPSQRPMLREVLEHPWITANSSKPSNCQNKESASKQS
IC50 [1] [nM],IC50 Ratio Aur B/Aur A [2],Structure (SMILES)
0.91,613,"Cc1cc(Nc2ccc(F)c(C[C@@]3(C(=O)O)CCN(Cc4cc(Cl)c(F)c(Cl)c4)[C@H](C)C3)n2)n[nH]1 [Example 23, (2R,4R)-1-(3,5-dichloro-4-fluorobenzyl)-4-((3-fluoro-6-((5-methyl-1H-pyrazol-3-yl)amino)pyridin-2-yl)methyl)-2-methylpiperidine-4-carboxylic acid]"
2.9,1499,"Cc1cc(Nc2ncc(F)c(C[C@@]3(C(=O)O)CCN(Cc4cccc(Cl)c4F)[C@H](C)C3)n2)n[nH]1 [Example 26, (2R,4R)-1-(3-chloro-2-fluorobenzyl)-4-((5-fluoro-2-((5-methyl-1H-pyrazol-3-yl)amino)pyrimidin-4-yl)methyl)-2-methylpiperidine-4-carboxylic acid]"
0.81,622,"Cc1cc(Nc2ccc(F)c(C[C@@]3(C(=O)O)CCN(Cc4ccc(F)c(Cl)c4F)[C@H](C)C3)n2)n[nH]1 [Example 27, (2R,4R)-1-(3-chloro-2,4-difluorobenzyl)-4-((3-fluoro-6-((5-methyl-1H-pyrazol-3-yl)amino)pyridin-2-yl)methyl)-2-methylpiperidine-4-carboxylic acid]"
1.4,586,"Cc1cc(Nc2cccc(C[C@@]3(C(=O)O)CCN(Cc4cccc(Cl)c4F)[C@H](C)C3)n2)n[nH]1 [Example 29, (2R,4R)-1-(3-chloro-2-fluorobenzyl)-2-methyl-4-((6-((5-methyl-1H-pyrazol-3-yl)amino)pyridin-2-yl)methyl)piperidine-4-carboxylic acid]"
1.5,3757,"Cc1cc(Nc2nc(C[C@@]3(C(=O)O)CCN(Cc4cccc(Cl)c4F)[C@H](C)C3)cnc2C)n[nH]1 [Example 33, (2R,4R)-1-(3-chloro-2-fluorobenzyl)-2-methyl-4-((5-methyl-6-((5-methyl-1H-pyrazol-3-yl)amino)pyrazin-2-yl)methyl) piperidine-4-carboxylic acid]"
1.9,2403,"Cc1cc(Nc2nc(C[C@@]3(C(=O)O)CCN(Cc4cccc(Cl)c4F)[C@H](C)C3)c(F)cc2C)[nH]n1 [Example 35, (2R,4R)-1-(3-chloro-2-fluorobenzyl)-4-((3-fluoro-5-methyl-6-((3-methyl-1H-pyrazol-5-yl)amino)pyridin-2-yl)methyl)-2-methylpiperidine-4-carboxylic acid]"
0.85,986,"Cc1cc(Nc2ccc(F)c(C[C@@]3(C(=O)O)CCN(C(=O)Cc4cccc(Cl)c4F)[C@H](C)C3)n2)n[nH]1 [Example 38, (2R,4R)-1-(2-(3-chloro-2-fluorophenyl)acetyl)-4-((3-fluoro-6-((5-methyl-1H-pyrazol-3-yl)amino)pyri-din-2-yl)methyl)-2-methyl-piperidine-4-carboxylic acid]"
0.57,3019,"Cc1cc(Nc2ccc(F)c(C[C@@]3(C(=O)O)CCN(S(=O)(=O)c4ccccc4C(F)(F)F)[C@H](C)C3)n2)n[nH]1 [Example 39, (2R,4R)-4-((3-fluoro-6-((5-methyl-1H-pyrazol-3-yl)amino)pyridin-2-yl)methyl)-2-methyl-1-((2-(trifluoromethyl)phenyl)sulfonyl)piperidine-4-carboxylic acid]"
2.7,3682,"Cc1cc(Nc2ccc(F)c(C[C@@]3(C(=O)O)CCN([C@@H](C)c4cccc(Cl)c4F)[C@H](C)C3)n2)n[nH]1 [Example 41, (2R,4R)-1-(1-(3-chloro-2-fluorophenyl)ethyl)-4-((3-fluoro-6-((5-methyl-1H-pyrazol-3-yl)amino)pyridin-2-yl)methyl)-2-methylpiperidine-4-carboxylic acid]"
0.22,2833,"Cc1cc(Nc2cc(C)c(F)c(CC3(C(=O)O)CCN(Cc4cccc(Cl)c4F)CC3)n2)n[nH]1 [Example 51, 1-(3-chloro-2-fluorobenzyl)-4-((3-fluoro-4-methyl-6-((5-methyl-1H-pyrazol-3-yl)amino)-pyridin-2-yl)methyl)piper-idine-4-carboxylic acid]"
1.3,1285,Cc1cc(Nc2cc(C)c(F)c(CC3(C(=O)O)CCN(Cc4cccc(F)c4F)CC3)n2)n[nH]1 [Example 52]
0.43,2041,Cc1cc(Nc2cc(C)c(F)c(CC3(C(=O)O)CCN(Cc4cccc(Cl)c4Cl)CC3)n2)n[nH]1 [Example 54]
0.88,3835,"Cc1cc(Nc2cc(C)c(F)c(CC3(C(=O)O)CCN(Cc4c(F)ccc(Cl)c4F)CC3)n2)n[nH]1 [Example 55, 1-(3-chloro-2,6-difluoro-benzyl)-4-((3-fluoro-4-methyl-6-((5-methyl-1H-pyrazol-3-yl)-amino)pyridin-2-yl)methyl) piperidine-4-carboxylic acid]"
0.57,716,"CCc1cc(Nc2cc(C)[nH]n2)nc(CC2(C(=O)O)CCN(Cc3cccc(Cl)c3F)CC2)c1F [Example 66, 1-(3-chloro-2-fluorobenzyl)-4-((4-ethyl-3-fluoro-6-((5-methyl-1H-pyrazol-3-yl)amino)-pyridin-2-yl)methyl)piperidine-4-carboxylic acid]"
1.6,759,"Cc1cc(Nc2cc(C#N)c(F)c(C[C@@]3(C(=O)O)CCN(Cc4cccc(Cl)c4F)[C@H](C)C3)n2)[nH]n1 [Example 67, (2R,4R)-1-(3-chloro-2-fluorobenzyl)-4-((4-cyano-3-fluoro-6-((3-methyl-1H-pyrazol-5-yl)amino)pyridin-2-yl)methyl)-2-methylpiperidine-4-carboxylic acid]"
0.67,3358,Cc1cc(Nc2nc(C[C@@]3(C(=O)O)CCN(Cc4cccc(Cl)c4F)[C@H](C)C3)c(F)c(Cl)c2F)n[nH]1 [Example 74]
0.61,2036,"Cc1cc(Nc2nc(CC3(C(=O)O)CCN(Cc4cccc(Cl)c4F)CC3)cc(C)c2F)n[nH]1 [Example 79, 1-(3-chloro-2-fluorobenzyl)-4-((5-fluoro-4-methyl-6-((5-methyl-1H-pyrazol-3-yl)amino)-pyridin-2-yl)methyl)piper-idine-4-carboxylic acid]"
0.77,1353,"Cc1cc(Nc2cc(S(C)(=O)=O)c(F)c(C[C@@]3(C(=O)O)CCN(Cc4cccc(Cl)c4F)[C@H](C)C3)n2)n[nH]1 [Example 81, (2R,4R)-1-(3-chloro-2-fluorobenzyl)-4-((3-fluoro-6-((5-methyl-1H-pyrazol-3-yl)amino)-4-(methylsulfonyl)pyridin-2-yl)methyl)-2-methylpiperidine-4-carboxylic acid]"
1.4,4026,"Cc1cc(Nc2nc(C[C@@]3(C(=O)O)CCN(Cc4cccc(Cl)c4F)[C@H](C)C3)c(F)c(Cl)c2Cl)n[nH]1 [Example 84, (2R,4R)-1-(3-chloro-2-fluorobenzyl)-4-((4,5-dichloro-3-fluoro-6-((5-methyl-1H-pyrazol-3-yl)amino)pyridin-2-yl)methyl)-2-methylpiperidine-4-carboxylic acid]"
0.54,1479,"Cc1cc(Nc2nc(C[C@@]3(C(=O)O)CCN(Cc4cccc(Cl)c4F)[C@H](C)C3)cc(C#N)c2F)n[nH]1 [Example 90, (2R,4R)-1-(3-chloro-2-fluorobenzyl)-4-((4-cyano-5-fluoro-6-((5-methyl-1H-pyrazol-3-yl)amino)pyridin-2-yl)methyl)-2-methylpiperidine-4-carboxylic acid]"
1.1,451,"Cc1cc(Nc2nc(C[C@@]3(C(=O)O)CCN(Cc4cccc(Cl)c4F)[C@H](C)C3)c(F)cc2F)n[nH]1 [Example 91, (2R,4R)-1-(3-chloro-2-fluorobenzyl)-4-((3,5-difluoro-6-((5-methyl-1H-pyrazol-3-yl)amino)pyridin-2-yl)methyl)-2-methylpiperidine-4-carboxylic acid]"
0.74,4393,Cc1cc(Nc2nc(CC3(C(=O)O)CCN(Cc4cccc(Cl)c4F)CC3)c(F)cc2F)n[nH]1 [Example 92]
0.93,804,"Cc1[nH]nc(Nc2ccc(F)c(CC3(C(=O)O)CCN(Cc4cccc(Cl)c4F)C(C)C3)n2)c1C (stereo not shown) [Example 102, 1-(3-chloro-2-fluorobenzyl)-4-((6-((4,5-dimethyl-1H-pyrazol-3-yl)-amino)-3-fluoropyridin-2-yl)-methyl)-2-methylpiperidine-4-carb-oxylic acid]"
